The record followed here is PubChem BioAssay (NCI).

Some test systems named below: A498 renal; HCT-15 colon; HOP-62 NSCLC; OVCAR-5 ovarian; PC-3 prostate; SK-MEL-28 melanoma; SK-OV-3 ovarian; SW-620 colon; U251 CNS; LOX IMVI melanoma.
What all share (test): growth of human tumour cells (NCI), 48 h

The structures appear in SMILES notation.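 Cultured in 96-well plates, cells were exposed to test compound for 48 hours across five concentrations. TGI: total growth inhibition.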 Where only a bound is given, the exact number is not on record here.

For `CC1CN(C)c2ccccc2N=C1NN` (configuration not stated), the TGI in the test with A498 renal, in the test with HCT-15 colon, in the test on HOP-62 NSCLC, in the test on OVCAR-5 ovarian, in the test on PC-3 prostate and with SK-MEL-28 melanoma was greater than 100 µM each time. For the same molecule, the TGI in the test with SK-OV-3 ovarian, in the test on SW-620 colon and in the test with U251 CNS was greater than 100 µM throughout.

Turning to `CCC(=O)NC(Nc1cc(C)on1)(C(F)(F)F)C(F)(F)F`, the TGI in the test on A498 renal, in the test with HCT-15 colon, with HOP-62 NSCLC, in the test with LOX IMVI melanoma, with OVCAR-5 ovarian and with SK-MEL-28 melanoma was greater than 100 µM in each case. Further, the TGI in the test on SK-OV-3 ovarian, with SW-620 colon and in the test with U251 CNS was greater than 100 µM in each case.

For `COc1ccc(C(=C2C=CC=C2)c2ccc(OC)cc2)cc1`, the TGI is 74 µM in the test with HCT-15 colon; greater than 100 µM in the test with HOP-62 NSCLC; 33.7 µM in the test on LOX IMVI melanoma; 88.5 µM with OVCAR-5 ovarian; greater than 100 µM in the test on PC-3 prostate; greater than 100 µM in the test on SK-MEL-28 melanoma. The TGI with SK-OV-3 ovarian was greater than 100 µM; with SW-620 colon, greater than 100 µM; in the test on U251 CNS, 71.6 µM.

Take `O=C(C1OC1c1ccc(Br)cc1O)C12CC3CC(CC(C3)C1)C2` (configuration not stated): the TGI with A498 renal was greater than 100 µM; with HCT-15 colon, 47 µM; in the test on HOP-62 NSCLC, 67.9 µM; with LOX IMVI melanoma it was 28.7 µM; in the test with OVCAR-5 ovarian, greater than 100 µM; in the test on PC-3 prostate, 58.7 µM. The values for the TGI in the test with SK-MEL-28 melanoma, in the test with SW-620 colon and in the test on U251 CNS were 46.8 µM, 35.4 µM and 30.8 µM, respectively.

Turning to `Oc1ccccc1CNCc1nc2ccccc2[nH]1`, the TGI with A498 renal is greater than 100 µM; with HCT-15 colon, 12.3 µM; with HOP-62 NSCLC, greater than 100 µM; with LOX IMVI melanoma, greater than 100 µM; with OVCAR-5 ovarian, greater than 100 µM; in the test on PC-3 prostate, greater than 100 µM. Besides, the TGI in the test with SK-MEL-28 melanoma, with SW-620 colon and in the test on U251 CNS was greater than 100 µM each time.

`c1ccc2c3[nH]c(c2c1)=Nc1ccc(cc1)-c1nc2cc(ccc2o1)N=c1[nH]c(c2ccccc12)=Nc1ccc2nc(oc2c1)-c1ccc(cc1)N=3`: the TGI in the test with A498 renal, in the test on HCT-15 colon, in the test with HOP-62 NSCLC, with LOX IMVI melanoma, with OVCAR-5 ovarian and in the test on PC-3 prostate was greater than 100 µM throughout. Also, the TGI in the test with SK-MEL-28 melanoma, in the test with SW-620 colon and with U251 CNS was greater than 100 µM in each case.

With `COC(=O)[C@@H](O)[C@](O)(CCC(C)C)C(=O)O[C@@H]1C(OC)=C[C@]23CCCN2CCc2cc4c(cc2[C@H]13)OCO4`, the TGI stood at 4.45 µM in the test with A498 renal; 7.33 µM in the test on HCT-15 colon; 4.75 µM in the test with HOP-62 NSCLC; 5.21 µM in the test with LOX IMVI melanoma; 15.2 µM in the test on OVCAR-5 ovarian; 2.78 µM in the test on SK-MEL-28 melanoma. Also, the values for the TGI in the test on SK-OV-3 ovarian, with SW-620 colon and with U251 CNS were 8.12 µM, 9.94 µM and 6.05 µM, respectively.

Regarding `COc1ncc(/C=C2\OC(=O)c3ccccc32)c(OC)n1`, the TGI was greater than 100 µM in the test on A498 renal; greater than 100 µM in the test with HCT-15 colon; 66 µM in the test on HOP-62 NSCLC; greater than 100 µM in the test on LOX IMVI melanoma; greater than 100 µM in the test with OVCAR-5 ovarian; greater than 100 µM in the test with PC-3 prostate. In addition, the TGI with SK-MEL-28 melanoma, with SW-620 colon and in the test on U251 CNS was greater than 100 µM in each case.

For `O=C(NCc1ccccc1)c1n[nH][nH]c1=O`, the TGI with HCT-15 colon, with HOP-62 NSCLC, in the test on OVCAR-5 ovarian, with PC-3 prostate, in the test on SK-MEL-28 melanoma and in the test on SK-OV-3 ovarian was greater than 100 µM each time. Moreover, the TGI in the test on SW-620 colon and with U251 CNS was greater than 100 µM throughout.

Regarding `COc1ccc(/C=c2\sc3n(c2=O)CCN=3)cc1`, the TGI in the test with HCT-15 colon, in the test on HOP-62 NSCLC, in the test on LOX IMVI melanoma, in the test on OVCAR-5 ovarian, in the test with SK-MEL-28 melanoma and in the test with SK-OV-3 ovarian was greater than 100 µM throughout. Also, the TGI in the test on SW-620 colon and in the test with U251 CNS was greater than 100 µM in each case.

Regarding `Nc1nc(-c2ccccc2)nc2oc(-c3cccs3)nc12`, the TGI with A498 renal, with HCT-15 colon, with HOP-62 NSCLC, in the test on LOX IMVI melanoma, in the test with OVCAR-5 ovarian and with PC-3 prostate was greater than 100 µM throughout. Also, the TGI in the test on SK-MEL-28 melanoma, with SW-620 colon and in the test with U251 CNS was greater than 100 µM each time.

In the case of `S=C(N/N=C(/c1ccccc1)c1ccccn1)N(Cc1ccccn1)Cc1ccccn1`, the TGI in the test on HOP-62 NSCLC was 3.17 µM; with LOX IMVI melanoma, 1.74 µM; with OVCAR-5 ovarian, 3.37 µM; with PC-3 prostate it was 1.78 µM; with SK-MEL-28 melanoma, 5.45 µM; in the test with SK-OV-3 ovarian it was 1.66 µM. Moreover, the TGI in the test on SW-620 colon came to 7.72 µM.

With `Cc1ccc(NC(=O)CC2Sc3ccccc3NC2=O)cc1C` (configuration not stated), the TGI with A498 renal, in the test on HCT-15 colon, in the test on HOP-62 NSCLC, in the test on LOX IMVI melanoma, in the test with OVCAR-5 ovarian and in the test on SK-MEL-28 melanoma was greater than 100 µM throughout. Besides, the TGI in the test on SK-OV-3 ovarian, with SW-620 colon and in the test with U251 CNS was greater than 100 µM each time.

Take `O=c1[nH]c(=S)[nH]c2c1C(c1ccc([N+](=O)[O-])cc1)c1c([nH]c(=S)[nH]c1=O)O2`: the TGI in the test with A498 renal, in the test with HCT-15 colon, in the test with HOP-62 NSCLC, in the test on LOX IMVI melanoma, with OVCAR-5 ovarian and with PC-3 prostate was greater than 100 µM throughout. The TGI with SK-MEL-28 melanoma, in the test with SW-620 colon and in the test on U251 CNS was greater than 100 µM throughout.
